Data: patent US20250051264A1, “CANNABIDIOL DERIVATIVE, PREPARATION METHOD THEREFOR AND APPLICATION THEREOF” (DEYI PHARMACEUTICAL LTD., priority 2021, published 2025)

Experiments:
Assay type in all cases: in vivo, C57/BL6 mice
[1] = system: tyrosine hydroxylase (TH) cells in substantia nigra (SubN); test: Tyrosine hydroxylase (TH) cells in substantia nigra (SubN) by immunohistochemistry in the MPTP mouse model of Parkinson's disease; conditions: for positive rate of TH cells in substantia nigra as compared to the model group: after treatment; for TH cell positive rate: substantia nigra, after 14 days intragastric treatment (compound 3 100 mg/kg; amantadine 40 mg/kg), blank 34.27 ± 5.08, model 12.74 ± 1.71
Protocol: (§1) (2) MPTP (25 mg/kg) was intraperitoneally injected once a day for 7 consecutive days. The blank group was left untreated.
(§2) (3) After modeling, administration was started. […] The intragastric administration was performed once a day for 14 consecutive days.
The tissue should be cut using sharp knives and scissors. When cutting a tissue mass, the tissue was cut by pulling backwards from the root of the knife. […] The prepared tissue mass was fixed in 10% formalin for 48 h.
The fixed tissue was washed with running water to remove residual fixing liquid and impurities. The tissue mass was dehydrated in stages with different concentrations of ethanol (50%, 70%, 85%, 95%, up to pure alcohol (absolute ethanol)), each stage for 2 h. Dehydration must be performed in a capped flask to prevent high concentrations of ethanol from absorbing moisture in the air, resulting in reduced concentrations and incomplete dehydration. The material to be preserved can remain in 70% ethanol when being dehydrated with it. For long-term preservation, an equivalent amount of glycerol can be added.
The tissue mass was placed into a mixed solution of pure ethanol and xylene in an equivalent volume and left to stand for 2 h, subsequently placed into pure xylene and left to stand for two hours, and placed into pure xylene and left to stand for another two hours. After transparentizing, the effect of the previous dehydration of the material can be shown. If the dehydration is complete, the tissue is in a transparent state, and if there is a white cloud-shaped substance in the tissue, it means that the dehydration is incomplete and must be reworked, but the effect of rework is often not good. When xylene is used for transparentizing, it should be prevented from volatilizing and absorbing moisture in the air, and it should be kept in an anhydrous state.
The paraffin immersion must be performed in a thermostat. The tissue mass material was first immersed in a mixed solution of molten paraffin and xylene in equal volume for 1-2 h and subsequently immersed in 2 parts of molten paraffin solutions for 3 h each.
Embedding is the encapsulation of the paraffin-impregnated tissue mass with paraffin. Specifically, a paper box was first prepared, molten paraffin was added to the box, a tissue mass was quickly clamped by using a pair of pre-heated tweezers, and placed flat at the bottom of the paper box with a cut surface facing downwards. Subsequently, the paper box was slightly lifted up and placed flat in cold water, immediately pressed into the water after the paraffin on the surface was solidified for quickly cooling and solidifying the paraffin, and taken out after 30 min.
The paraffin block was placed in a refrigerator at −20° C. for at least 30 min before slicing to increase hardness. […]

[2] = system: model of Parkinson's disease; test: Behavioral balance beam score in the MPTP mouse model of Parkinson's disease; conditions: for balance beam score after treatment: after 14 days intragastric treatment, model group 4-5 points; for Behavioral balance beam score, After treatment: after intragastric administration once a day for 14 days (compound 3 100 mg/kg; amantadine 40 mg/kg), model group 4.50 ± 0.53; for Behavioral balance beam score, After treatment / Behavioral balance beam score, After modeling: scale 0-5; for balance beam score as compared to the model group: after treatment, P≤0.05; for Behavioral balance beam score, After modeling: baseline 7 days after MPTP 25 mg/kg i.p. once daily, before treatment, mean ± SD, 8 mice per group
Protocol: C57/BL6 mice, SPF grade, weighing 18-20 g, aged 6-8 weeks, male, purchased from Shanghai Slac Laboratory Animal Co., Ltd. Feeding environment: the temperature was kept at 22±1° C., and the humidity was kept at 65%-70%, in a 12/12 hour light/dark illumination cycle, with free access to water.
(1) 32 SPF-grade C57 mice aged 6-8 weeks were purchased and acclimatized for one week, and subsequently the modeling was started.
as §1, §2
(4) Behavioral test was first performed by balance beam test scoring.
A beam of 80 cm long and 2.5 cm wide was horizontally fixed at a height of 10 cm from the table top, and subsequently, the animals were allowed to walk on the beam.
The scoring scale was as follows: being able to jump on the balance beam and to walk freely without falling down: 0 points; being able to jump on the balance beam, but having a probability of tumbling down of less than 50% when walking on the balance beam: 1 point; being able to jump on the balance beam, but having a probability of tumbling down of greater than 50% when walking on the balance beam: 2 points; being able to jump on the balancing beam with the help of the normal side of the body, but failing to get help from the hind limb on the paralyzed side to move forward: 3 points; being unable to walk on the balance beam, but being able to sit on the beam: 4 points; falling off quickly when being placed on the beam: 5 points.

dopamine in striatum = test: Content of dopamine in brain striatum by the kit method (ELISA) in the MPTP mouse model of Parkinson's disease
Protocol: as §1, §2
After the mice were sacrificed quickly, the brains of the mice were taken and the cerebral palliums (CPs) of the mice were isolated. After exposing the brain striatum of the mice, the striatum was weighed and homogenized after adding PBS according to a proportion. The supernatant was isolated and detected for the content of dopamine in the brain striatum.
(1) Standard curve plotting: a microplate was taken, and reagents were added according to the table below.
(2) According to the number of samples, a proper amount of BCA working solution was prepared by uniformly mixing BCA reagent A and reagent B according to a volume ratio of 50:1.
(3) 160 μL of BCA working solution was added to each well.
(4) The microplate was shaken on a shaker for 30 s, left to stand at 37° C. for 30 min, and subsequently measured for absorbance at 562 nm. A standard curve was plotted with the absorbance value as an abscissa and the protein concentration (μg/μL) as an ordinate.
(5) 2 μL of test protein and 18 μL of PBS (10-fold dilution) were added to the microplate, 160 μL of BCA working solution was added, and the microplate was shaken on a shaker for 30 s, left to stand at 37° C. for 30 min, and subsequently measured for the absorbance at 562 nm.
(7) The experimental procedures and methods for the determination of dopamine in mice were referred to the kit instructions.

NC12CC3CC(CC(C3)C1)C2 [Positive drug, amantadine, reference compound]
positive rate of TH cells in substantia nigra as compared to the model group [1]: significant increase | TH cell positive rate [1]: 20.82 ± 5.77 % | balance beam score after treatment [2]: 2-3 points | Behavioral balance beam score, After treatment [2]: 2.13 ± 0.83 | balance beam score as compared to the model group [2]: significant descending trend | Behavioral balance beam score, After modeling [2]: 4.75 ± 0.46

C=C(C)[C@@H]1CCC(C)=C[C@H]1c1c(OC(=O)[C@@H](N)CCCCN)cc(CCCCC)cc1OC(=O)[C@@H](N)CCCCN [compound 3]
positive rate of TH cells in substantia nigra as compared to the model group [1]: increase | TH cell positive rate [1]: 14.59 ± 2.60% | balance beam score after treatment [2]: 3-4 points | Behavioral balance beam score, After treatment [2]: 3.50 ± 1.07 | balance beam score as compared to the model group [2]: significant descending trend | Behavioral balance beam score, After modeling [2]: 4.38 ± 0.52 | DA content of dopamine in striatum after treatment (dopamine in striatum; after 14 days intragastric treatment (compound 3 100 mg/kg; amantadine 40 mg/kg), blank 0.71 ± 0.16, model 0.30 ± 0.07): 0.45 ± 0.10 ng/mg | dopamine content as compared to the model group (dopamine in striatum; after treatment, P≤0.01): increase | content of dopamine compared with the blank group (dopamine in striatum; after treatment, P≤0.05): significant decrease
